{
  "source": "PubChem BioAssay AID2060503",
  "about": "(Molecular Pharmacology Branch, DTP, NCI, 2025);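 also: spheroids exposed to agents for 7 days before readout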;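 as to viability, T/C: percent viability relative to DMSO vehicle control taken as 100%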",
  "test_system": "817829-284-R-J1-PDC complex spheroids, viability",
  "test": "Anticancer human tumor 817829-284-R-J1-PDC patient-derived colon adenocarcinoma cell line growth inhibition [GQUAD]",
  "settings": "for IC50: curve of first compound; for viability, T/C: stronger effect = lower value",
  "from_the_text": "DNA G-quadruplex Stabilizer Agents in Combinations in Complex Spheroids\nA high-throughput screen of multi-cell type tumor spheroids was designed to identify active combinations of DNA G-quadruplex stabilizer agents and targeted small molecules. Complex spheroids include a stromal component modeled by human endothelial cells (HUVEC) and fibroblasts modeled by human mesenchymal stem cells (MSCs). The concentration ranges selected for each drug and investigational agent were based upon clinically achievable concentrations if the clinical Cmax of the agent was known.\nCompounds. The drugs and investigational agents: pidnarulex (CX-5461; NSC782164), APTO-253 (NSC789042), BRACO-19 (NSC847499), peposertib (NSC802822), ceralasertib (NSC780249), elimusertib (NSC800525), camonsertib (NSC841442), AZD-1390 (NSC803789), olaparib (NSC753686), talazoparib (NSC767125), ART-558 (NSC835418), sotorasib (NSC818433), MRTX-1133 (NSC836407), SN-38 (NSC673596), topotecan (NSC609699), etoposide (NSC141540), doxorubicin (NSC123127), gemcitabine (NSC613327), 5-fluorouracil (NSC19893), paclitaxel (NSC125973), vemurafenib (NSC761431), panobinostat (NSC761190), R-306465 (JNJ-16241199; NSC773264), adavosertib (NSC754352), TP-3654 (NSC805149), carboplatin (NSC241240), KSQ-4279 (NSC840948), and staurosporine (NSC755774) were obtained from the National Cancer Institute (NCI) Developmental Therapeutics Program Chemical Repository (34). The FDA-approved anticancer drug set is available from the NCI Developmental Therapeutics Program. […] The stock solutions were prepared in dimethyl sulfoxide (DMSO, Sigma-Aldrich, St. Louis, MO, cat. D2650) at 800-fold the tested concentration and stored at -70 degrees C prior to their use. All drugs and investigational agents were tested over a range starting from a high concentration at or near the clinical Cmax and decreasing in half-log increments. If the clinical Cmax for an agent had not been determined, the highest concentration tested was 10 microM.\n2.3 Cell Culture. All cells were maintained in an incubator at 37 degrees C and 5% CO2 with 95% humidity. The PDC lines were cultured according to standard operating procedures established by the NCI PDMR. All PDCs were thawed and cultured in Matrigel-coated flasks prepared with a working solution of 1X Ham's F-12 nutrient mix, without supplementation (Invitrogen, cat. 11765054), 100 U/mL penicillin-streptomycin (Invitrogen, cat. 15140122), and 2.5% Matrigel (Corning Inc., cat. 354248) for the first three passages. The 857933-349-R-J2-PDC line was cultured in 6C/Colon 1B media, which includes advanced DMEM/F-12 (Thermo Fisher Scientific, cat. 12634028), 10 mM HEPES (Thermo Fisher Scientific, cat. 15630080), 1X GlutaMAX supplement (Thermo Fisher Scientific, cat. 35050061), 0.1 mg/mL primocin (InvivoGen, cat. ant-pm-2), 10% defined fetal bovine serum, heat inactivated (HyClone Laboratories Inc., cat. SH30070.03HI), 50% L-WRN conditioned media (ATCC, cat. CRL-3276), 1.25 mM N-Acetyl-L-cysteine (Sigma-Aldrich, cat. A9165), 10 mM nicotinamide (Sigma-Aldrich, cat. N0636), 1X B-27 supplement (Thermo Fisher Scientific, cat. 17504044), 1X N-2 supplement (Thermo Fisher Scientific, cat. 17502048), 10 microM Y-27632 dihydrochloride (Tocris Bioscience, cat. 1254), and 50 ng/mL human EGF recombinant protein (Thermo Fisher Scientific, cat. PHG0311). The 485176-168-R4-J1-PDC line was cultured in Panc media, which includes all 6C/Colon 1B media components plus 100 ng/mL human FGF-10 (Thermo Fisher Scientific, cat. 100-26), 500 nM SB-431542 (Selleckchem, cat. S1067), and gastrin (Tocris, cat. 3006).\n[…]",
  "data": [
    {"smiles": "CC[C@@]1(O)C(=O)OCc2c1cc1n(c2=O)Cc2cc3c(CN(C)C)c(O)ccc3nc2-1", "note": "+ Cc1cnc(CNC(=O)c2c(=O)c3ccc(N4CCCN(C)CC4)nc3n3c2sc2ccccc23)cn1", "values": [
      {"measurement": "IC50", "setting": "second compound 0.0316 µM", "result": 9660, "unit": "pM"},
      {"measurement": "IC50", "setting": "second compound 0.1 µM", "result": "< 999", "unit": "pM"},
      {"measurement": "IC50", "setting": "second compound 0.316 µM", "result": "< 999", "unit": "pM"},
      {"measurement": "IC50", "setting": "second compound 1 µM", "result": "< 999", "unit": "pM"},
      {"measurement": "IC50", "setting": "second compound 3.16 µM", "result": "< 999", "unit": "pM"},
      {"measurement": "IC50", "setting": "second compound 10 µM", "result": "< 999", "unit": "pM"},
      {"measurement": "viability, T/C", "setting": "second compound 0.0316 µM, first compound 0.000999 µM", "result": 78.1, "unit": "%"},
      {"measurement": "viability, T/C", "setting": "second compound 0.0316 µM, first compound 0.00316 µM", "result": 61, "unit": "%"},
      {"measurement": "viability, T/C", "setting": "second compound 0.0316 µM, first compound 0.00999 µM", "result": 54.5, "unit": "%"},
      {"measurement": "viability, T/C", "setting": "second compound 0.0316 µM, first compound 0.0316 µM", "result": 33.9, "unit": "%"},
      {"measurement": "viability, T/C", "setting": "second compound 0.0316 µM, first compound 0.0999 µM", "result": 33.8, "unit": "%"},
      {"measurement": "viability, T/C", "setting": "second compound 0.0316 µM, first compound 0.316 µM", "result": 28.5, "unit": "%"},
      {"measurement": "viability, T/C", "setting": "second compound 0.1 µM, first compound 0.000999 µM", "result": 29.2, "unit": "%"},
      {"measurement": "viability, T/C", "setting": "second compound 0.1 µM, first compound 0.00316 µM", "result": 37.9, "unit": "%"},
      {"measurement": "viability, T/C", "setting": "second compound 0.1 µM, first compound 0.00999 µM", "result": 32.2, "unit": "%"},
      {"measurement": "viability, T/C", "setting": "second compound 0.1 µM, first compound 0.0316 µM", "result": 31, "unit": "%"},
      {"measurement": "viability, T/C", "setting": "second compound 0.1 µM, first compound 0.0999 µM", "result": 28, "unit": "%"},
      {"measurement": "viability, T/C", "setting": "second compound 0.1 µM, first compound 0.316 µM", "result": 23.1, "unit": "%"},
      {"measurement": "viability, T/C", "setting": "second compound 0.316 µM, first compound 0.000999 µM", "result": 24.8, "unit": "%"},
      {"measurement": "viability, T/C", "setting": "second compound 0.316 µM, first compound 0.00316 µM", "result": 26.8, "unit": "%"},
      {"measurement": "viability, T/C", "setting": "second compound 0.316 µM, first compound 0.00999 µM", "result": 26.9, "unit": "%"},
      {"measurement": "viability, T/C", "setting": "second compound 0.316 µM, first compound 0.0316 µM", "result": 25, "unit": "%"},
      {"measurement": "viability, T/C", "setting": "second compound 0.316 µM, first compound 0.0999 µM", "result": 26, "unit": "%"},
      {"measurement": "viability, T/C", "setting": "second compound 0.316 µM, first compound 0.316 µM", "result": 20.5, "unit": "%"},
      {"measurement": "viability, T/C", "setting": "second compound 1 µM, first compound 0.000999 µM", "result": 20.3, "unit": "%"},
      {"measurement": "viability, T/C", "setting": "second compound 1 µM, first compound 0.00316 µM", "result": 24.9, "unit": "%"},
      {"measurement": "viability, T/C", "setting": "second compound 1 µM, first compound 0.00999 µM", "result": 24.4, "unit": "%"},
      {"measurement": "viability, T/C", "setting": "second compound 1 µM, first compound 0.0316 µM", "result": 22.9, "unit": "%"},
      {"measurement": "viability, T/C", "setting": "second compound 1 µM, first compound 0.0999 µM", "result": 23.8, "unit": "%"},
      {"measurement": "viability, T/C", "setting": "second compound 1 µM, first compound 0.316 µM", "result": 22.6, "unit": "%"},
      {"measurement": "viability, T/C", "setting": "second compound 3.16 µM, first compound 0.000999 µM", "result": 22.5, "unit": "%"},
      {"measurement": "viability, T/C", "setting": "second compound 3.16 µM, first compound 0.00316 µM", "result": 21.7, "unit": "%"},
      {"measurement": "viability, T/C", "setting": "second compound 3.16 µM, first compound 0.00999 µM", "result": 20.3, "unit": "%"},
      {"measurement": "viability, T/C", "setting": "second compound 3.16 µM, first compound 0.0316 µM", "result": 19.2, "unit": "%"},
      {"measurement": "viability, T/C", "setting": "second compound 3.16 µM, first compound 0.0999 µM", "result": 20, "unit": "%"},
      {"measurement": "viability, T/C", "setting": "second compound 3.16 µM, first compound 0.316 µM", "result": 16.1, "unit": "%"},
      {"measurement": "viability, T/C", "setting": "second compound 10 µM, first compound 0.000999 µM", "result": 0.08, "unit": "%"},
      {"measurement": "viability, T/C", "setting": "second compound 10 µM, first compound 0.00316 µM", "result": 0.14, "unit": "%"},
      {"measurement": "viability, T/C", "setting": "second compound 10 µM, first compound 0.00999 µM", "result": 0.19, "unit": "%"},
      {"measurement": "viability, T/C", "setting": "second compound 10 µM, first compound 0.0316 µM", "result": 0.16, "unit": "%"},
      {"measurement": "viability, T/C", "setting": "second compound 10 µM, first compound 0.0999 µM", "result": 0.22, "unit": "%"},
      {"measurement": "viability, T/C", "setting": "second compound 10 µM, first compound 0.316 µM", "result": 0.17, "unit": "%"}
    ]}
  ]
}
